Measurements published in article PMC8844858, “Crystal structure and functional analysis of mycobacterial erythromycin resistance methyltransferase Erm38 reveals its RNA-binding site” (The Journal of Biological Chemistry, 2022).
Like-named read-outs stand apart in the source and are kept apart here.

Target: T1, Erm38 (Mycolicibacterium smegmatis, UniProt Q79N53)
T1 construct: gene erm(38); truncated, residues 13-261 of 386 (disordered termini removed), about 30 kDa; synthetic codon-optimised gene in pNIC28-Bsa4, E. coli BL21(DE3)-T1R Rosetta; IMAC, cation exchange and size exclusion
T1 sequence (Q79N53 entry or part of it): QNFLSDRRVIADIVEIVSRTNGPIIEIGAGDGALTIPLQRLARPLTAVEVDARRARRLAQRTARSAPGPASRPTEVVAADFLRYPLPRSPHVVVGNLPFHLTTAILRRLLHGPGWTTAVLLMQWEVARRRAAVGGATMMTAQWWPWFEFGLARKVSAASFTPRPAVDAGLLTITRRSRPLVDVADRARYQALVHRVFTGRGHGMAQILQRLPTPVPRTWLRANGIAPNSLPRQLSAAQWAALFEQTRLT
Settings: 2.25 A, SAM-binding site

| Compound | X-ray crystal structure (soak) (2 mM SAM soaked 24 h into native crystals) | X-ray crystal structure (soak) (2 mM sinefungin soaked 24 h into native crystals) |
| --- | --- | --- |
| C[S+](CC[C@H](N)C(=O)O)C[C@H]1O[C@@H](n2cnc3c(N)ncnc32)[C@H](O)[C@@H]1O (some centres unmarked) [SAM] | cocrystals with either SAM or the isosteric sinefungin inhibitor were obtained by soaking |  |
| Nc1ncnc2c1ncn2[C@@H]1O[C@H](C[C@@H](N)CC[C@H](N)C(=O)O)[C@@H](O)[C@H]1O [SFG, sinefungin] |  | cocrystals with either SAM or the isosteric sinefungin inhibitor were obtained by soaking |
